These results are taken from patent publication US6458834B2, “Pentacyclic triterpenes” (Micro Flo Company, priority 1998, dated 2002).

One may read the IC50 as the point on the concentration scale where inhibition reaches its midpoint. What is called melting point is the temperature, or range, at which the solid turns liquid. Broadly, the inhibition is the relative decrease from the control value, in per cent. A high value points to a strong effect.

Like-named read-outs stand apart in the source and are kept apart here.

One series concerns the target T1, human leucocyte elastase (Homo sapiens, UniProt P08246).
T1 construct: purchased Elastin Products
T1 sequence (P08246 30-267): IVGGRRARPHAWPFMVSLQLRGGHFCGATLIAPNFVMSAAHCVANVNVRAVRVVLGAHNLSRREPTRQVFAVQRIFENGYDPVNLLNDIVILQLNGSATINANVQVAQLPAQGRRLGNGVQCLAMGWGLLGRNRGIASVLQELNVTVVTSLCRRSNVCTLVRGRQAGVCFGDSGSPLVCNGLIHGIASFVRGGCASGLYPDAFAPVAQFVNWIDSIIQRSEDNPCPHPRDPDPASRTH
In words: Human leucocyte elastase (HLE) inhibition, MeO-Suc-Ala-Ala-Pro-Val-pNA substrate. It counts as biochemical. As to the method:
Stock solutions were mixed to yield a reaction mixture consisting of 0.5 mM MeO-Suc-Ala-Ala-Pro-Val-pNA (Sigma) and […] human leucocyte elastase (Elastin Products) in 0.1 M Tris, 0.5 M NaCl and 3% DMSO (v/v) at a pH of 7.5. Test compounds were solubilized in DMSO. Equal volumes of enzyme and inhibitor were mixed and allowed to incubate for 15 minutes at room temperature. The reaction was started by the addition of a third equal volume containing substrate. Reactions were carried out in microliter plates.

A further series addresses urokinase (Homo sapiens, UniProt P00749). In words: urokinase assay. It counts as biochemical. Conditions: for inhibition at 22 µM: measured at 22 μM. The source says: (§1) Thus, PTs appear to bind non-covalently to hydrophobic domains of enzymes and either block an access to the enzyme active site or cause conformational change, both resulting in the enzyme's inability to perform its function.

The target of a further series is T2, trypsin (Bos taurus, UniProt P00760).
T2 construct: gene PRSS1
T2 sequence (P00760 24-246): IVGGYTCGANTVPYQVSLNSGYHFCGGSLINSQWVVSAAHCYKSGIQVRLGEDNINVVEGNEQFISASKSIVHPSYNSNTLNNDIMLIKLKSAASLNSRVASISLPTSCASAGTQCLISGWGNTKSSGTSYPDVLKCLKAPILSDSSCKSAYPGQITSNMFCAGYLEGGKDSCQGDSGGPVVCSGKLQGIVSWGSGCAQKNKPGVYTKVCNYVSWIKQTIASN
Nature of the series: trypsin assay. It counts as biochemical.
Excerpt: as §1

A further series deals with thrombin (Homo sapiens, UniProt P00734). Nature of the series: thrombin assay. It counts as biochemical.
Excerpt: as §1

The target of a further series is plasmin (Homo sapiens, UniProt P00747). In words: plasmin assay. Type of series: biochemical. Conditions: for inhibition at 22 µM: measured at 22 μM.
Excerpt: as §1

Another series deals with mites. Conditions: cited from earlier work.
[1] abbreviates: 0.1 M Tris, 0.5 M NaCl, 3% DMSO, pH 7.5, 15 min preincubation at room temperature, read-out: IC50.

Sequence of plasmin (P00747 581-810 limits assumed, species assumed): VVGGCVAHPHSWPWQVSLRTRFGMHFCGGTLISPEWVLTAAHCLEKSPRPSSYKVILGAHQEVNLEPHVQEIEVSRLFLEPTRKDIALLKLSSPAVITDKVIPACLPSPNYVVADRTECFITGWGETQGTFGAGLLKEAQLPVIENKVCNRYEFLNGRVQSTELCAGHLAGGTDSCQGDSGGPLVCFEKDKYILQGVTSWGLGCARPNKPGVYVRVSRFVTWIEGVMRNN
Sequence of plasmin (P00747 97-580 partner limits assumed, species assumed): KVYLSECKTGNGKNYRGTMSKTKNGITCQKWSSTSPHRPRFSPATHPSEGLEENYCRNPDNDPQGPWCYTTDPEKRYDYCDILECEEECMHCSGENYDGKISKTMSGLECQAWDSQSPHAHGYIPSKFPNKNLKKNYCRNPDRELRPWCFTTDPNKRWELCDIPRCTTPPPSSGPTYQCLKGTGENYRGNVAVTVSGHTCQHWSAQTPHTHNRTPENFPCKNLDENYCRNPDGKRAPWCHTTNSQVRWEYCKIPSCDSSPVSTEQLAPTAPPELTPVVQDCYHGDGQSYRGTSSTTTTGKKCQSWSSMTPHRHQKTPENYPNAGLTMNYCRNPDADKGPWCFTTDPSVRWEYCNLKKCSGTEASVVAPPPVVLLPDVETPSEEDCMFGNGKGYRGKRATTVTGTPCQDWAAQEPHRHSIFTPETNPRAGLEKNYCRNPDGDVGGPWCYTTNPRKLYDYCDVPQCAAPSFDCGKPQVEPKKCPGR

`C=C(C)[C@@H]1CC[C@]2(C)CC[C@]3(C)[C@H](CC[C@@H]4[C@@]5(C)CC[C@H](O)C(C)(C)[C@@H]5CC[C@]43C)[C@@H]12` [Example 5, Lupeol]: 8.4 µM corresponded to half-maximal inhibition against human leucocyte elastase (IC50).
Still for that read-out and setting: the value for `C=C(C)[C@@H]1CC[C@]2(CO)CC[C@]3(C)[C@H](CC[C@@H]4[C@@]5(C)CC[C@H](O)C(C)(C)[C@@H]5CC[C@]43C)[C@@H]12` [Example 7, Betulin] was 5 µM.
Take `C=C(C)[C@@H]1CC[C@]2(COC(=O)CCC(=O)O)CC[C@]3(C)[C@H](CC[C@@H]4[C@@]5(C)CC[C@H](O)C(C)(C)[C@@H]5CC[C@]43C)[C@@H]12` [Example 8, 28-Succinylbetulin]: the IC50 at human leucocyte elastase (setting [1]) worked out at 6.3 µM.
Turning to `C=C(C)[C@@H]1CC[C@]2(C(=O)O)CC[C@]3(C)[C@H](CC[C@@H]4[C@@]5(C)CC[C@H](O)C(C)(C)[C@@H]5CC[C@]43C)[C@@H]12` [Example 9, Betulinic acid], the IC50 against urokinase worked out at 5 µM; at human leucocyte elastase (setting [1]), 3.3 µM; on trypsin, 8.5 µM; on thrombin, 2.3 µM; at plasmin, 6.2 µM.
`C=C(C)[C@@H]1CC[C@]2(C(=O)OC)CC[C@]3(C)[C@H](CC[C@@H]4[C@@]5(C)CC[C@H](O)C(C)(C)[C@@H]5CC[C@]43C)[C@@H]12` [Example 10, Methyl ester of betulinic acid]: the IC50 on human leucocyte elastase (setting [1]) was 5.7 µM.
Consider `C=C(C)C1CCC2(C(=O)O)CCC3(C)C(CCC4C5(C)CCC(OC(C)=O)C(C)(C)C5CCC43C)C12` (stereo not shown) [Example 11, Acetylbetulinic acid], for which 7 µM corresponded to half-maximal inhibition on human leucocyte elastase (IC50).
Regarding `C=C(C)[C@@H]1CC[C@]2(C(=O)O)CC[C@]3(C)[C@H](CC[C@@H]4[C@@]5(C)CCC(=O)C(C)(C)[C@@H]5CC[C@]43C)[C@@H]12` [Example 12, 3-Ketobetulinic acid], the IC50 on human leucocyte elastase (setting [1]) was found to be 11 µM.
In turn, `C=C(C)C1CCC2(C(=O)O)CCC3(C)C(CCC4C5(C)CCC(OS(C)(=O)=O)C(C)(C)C5CCC43C)C12` (stereo not shown) [Example 13, Methanesulfonylbetulinic acid] returned a melting point of 210 to 212 °C. Further, 11.2 µM corresponded to half-maximal inhibition on human leucocyte elastase (IC50).
As for `C=C(C)C1CCC2(C(=O)OC)CCC3(C)C(CCC4C5(C)CCC(OS(C)(=O)=O)C(C)(C)C5CCC43C)C12` (stereo not shown) [Example 14, Methyl ester of 3-methanesulfonylbetulinic acid], the IC50 at human leucocyte elastase (setting [1]) amounted to 7.3 µM.
On to `CC1(C)CC[C@]2(C)CC[C@]3(C)C(=CC[C@@H]4[C@@]5(C)CC[C@H](O)C(C)(C)[C@@H]5CC[C@]43C)[C@@H]2C1` [Example 15, β-Amyrin], for which, on human leucocyte elastase (setting [1]), the IC50 is 5.4 µM.
With `C[C@H]1[C@H](C)CC[C@]2(CO)CC[C@]3(C)C(=CC[C@@H]4[C@@]5(C)CC[C@H](O)C(C)(C)[C@@H]5CC[C@]43C)[C@H]12` [Example 16, Uvaol], the IC50 at human leucocyte elastase came to 4.5 µM.
As for `C[C@H]1[C@H](C)CC[C@]2(C(=O)O)CC[C@]3(C)C(=CC[C@@H]4[C@@]5(C)CC[C@H](O)C(C)(C)[C@@H]5CC[C@]43C)[C@H]12` [Example 17, Ursolic acid], the inhibition at 22 µM against urokinase is 83%; at plasmin it was 43%. The IC50 against human leucocyte elastase is 7.7 µM. In addition, in the series with mites, the “effects towards the mites and their survival” value was “toxicity and feeding deterrent effects”. The “reduction of ingestion time on diet containing ursolic acid” value with mites (diet containing ursolic acid) is on record as “about 30%”.
With `COC(=O)[C@]12CC[C@@H](C)[C@H](C)[C@H]1C1=CC[C@@H]3[C@@]4(C)CC[C@H](O)C(C)(C)[C@@H]4CC[C@@]3(C)[C@]1(C)CC2` [Example 18, Ursolic acid, Me ester], the IC50 at human leucocyte elastase (setting [1]) came to 4.9 µM.
For the compound `CC1(C)CC[C@]2(C(=O)O)CC[C@]3(C)C(=CC[C@@H]4[C@@]5(C)CC[C@H](O)C(C)(C)[C@@H]5CC[C@]43C)[C@@H]2C1` [Example 20, Oleanolic acid], the values for the inhibition at 22 µM against urokinase and on plasmin were 40% and 25%, respectively.
As to `COC(=O)[C@]12CCC(C)(C)C[C@H]1C1=CC[C@@H]3[C@@]4(C)CC[C@H](O)C(C)(C)[C@@H]4CC[C@@]3(C)[C@]1(C)CC2` [Example 21, Oleanolic acid, Me ester], the IC50 at human leucocyte elastase (setting [1]) was 8.5 µM.
Compound `CC1(C)CC[C@]2(C(=O)O)CC[C@]3(C)C(=CC[C@@H]4[C@@]5(C)CC[C@H](O)[C@@](C)(CO)[C@@H]5CC[C@]43C)[C@@H]2C1` [Example 23, Hederagenin] came in with an IC50 at human leucocyte elastase of 16.8 µM.
Regarding `CC1(C)CC[C@]2(C(=O)O)[C@H](O)C[C@]3(C)C(=CC[C@@H]4[C@@]5(C)CC[C@H](O)[C@@](C)(CO)[C@@H]5CC[C@]43C)[C@@H]2C1` [Example 24, Caulophyllogenin], the “inhibition of HLE at a single concentration” value on human leucocyte elastase (@ 21°) was 0% @ 21°.
As for Lupeol acetate [Example 6], the IC50 on human leucocyte elastase (setting [1]) worked out at 14.9 µM.
